Measured values as given in US12043599B2, “Herbicidal compounds” (SYNGENTA PARTICIPATIONS AG, priority 2018, dated 2024).

Assays:
Assay type in all cases: in vivo
Conditions in all cases: 250 g/h, evaluated after 13 days
[1] = system: Avena fatua (AVEFA); experiment: Pre-emergence herbicidal glasshouse test, percentage damage
Method: (§1) Seeds of a variety of test species are sown in standard soil in pots (Lolium perenne (LOLPE), Setaria faberi (SETFA), Alopecurus myosuroides (ALOMY), Echinochloa crus-galli (ECHCG), Avena fatua (AVEFA)). After cultivation for one day (pre-emergence) or after 8 days cultivation (post-emergence) under controlled conditions in a glasshouse (at 24/16° C., day/night; 14 hours light; 65% humidity), the plants are sprayed with an aqueous spray solution derived from the formulation of the technical active ingredient in acetone/water (50:50) solution containing 0.5% Tween 20 (polyoxyethelyene sorbitan monolaurate, CAS RN 9005-64-5). Compounds are applied at […]. The test plants are then grown in a glasshouse under controlled conditions in a glasshouse (at 24/16° C., day/night; 14 hours light; 65% humidity) and watered twice daily. After 13 days for pre and post-emergence, the test is evaluated for the percentage damage caused to the plant. The biological activities are shown in the following table on a five point scale (5=80-100%; 4=60-79%; 3=40-59%; 2=20-39%; 1=0-19%).

[2] = system: Echinochloa crus-galli (ECHCG); experiment: as above
Method: as §1

[3] = system: Lolium perenne (LOLPE); experiment: as above
Method: as §1

[4] = system: Setaria faberi (SETFA); experiment: as above
Method: as §1

[5] = system: Setaria faberi (SETFA); experiment: Post-emergence herbicidal glasshouse test, percentage damage
Method: as §1
Using procedures outlines above, wheat and barley crop plants and a weed species (SETFA) are treated post-emergence with compound A11 of the present invention or comparator compound C1 (Compound A-38 from WO2014/096289) at the application rates indicated. The compounds were also applied to wheat in conjunction with the safener compound cloquintocet-mexyl (CQC) at 50 g/ha.

[6] = system: Avena fatua (AVEFA); experiment: as above
Method: as §1

[7] = system: Echinochloa crus-galli (ECHCG); experiment: as above
Method: as §1

[8] = system: Lolium perenne (LOLPE); experiment: as above
Method: as §1

Row | Compound | AVEFA PRE percentage damage (five point scale) [1] | ECHCG PRE percentage damage (five point scale) [2] | LOLPE PRE percentage damage (five point scale) [3] | SETFA PRE percentage damage (five point scale) [4] | SETFA POST percentage damage (five point scale) [5] | AVEFA POST percentage damage (five point scale) [6] | ECHCG POST percentage damage (five point scale) [7] | LOLPE POST percentage damage (five point scale) [8]
1 | CC#Cc1cc(C)c(C2C(=O)CC3(CCN(C(=O)c4nccn4C)CC3)CC2=O)c(C)c1 [Compound A112] | 5 (5=80-100%) | 5 (5=80-100%) | 5 (5=80-100%) | 5 (5=80-100%) | 5 (5=80-100%) | 5 (5=80-100%) | 5 (5=80-100%) | 5 (5=80-100%)
2 | CC#Cc1cc(C)c(C2C(=O)CC3(CCN(C(=O)CC4CCOCC4)CC3)CC2=O)c(C)c1 [Compound A109] | 5 (5=80-100%) | 5 (5=80-100%) | 5 (5=80-100%) | 5 (5=80-100%) | 5 (5=80-100%) | 5 (5=80-100%) | 5 (5=80-100%) | 5 (5=80-100%)
3 | CC#Cc1cc(C)c(C2C(=O)CC3(CCN(C(=O)c4cocn4)CC3)CC2=O)c(C)c1 [Compound A123] | 5 (5=80-100%) | 5 (5=80-100%) | 5 (5=80-100%) | 5 (5=80-100%) | 5 (5=80-100%) | 5 (5=80-100%) | 5 (5=80-100%) | 5 (5=80-100%)
4 | CC#Cc1cc(C)c(C2C(=O)CC3(CCN(C(=O)c4ccnc(F)c4)CC3)CC2=O)c(C)c1 [Compound A125] | 5 (5=80-100%) | 5 (5=80-100%) | 5 (5=80-100%) | 5 (5=80-100%) | 5 (5=80-100%) | 5 (5=80-100%) | 5 (5=80-100%) | 5 (5=80-100%)
5 | CC#Cc1cc(C)c(C2=C(OC(=O)OC)CC3(CCN(C(=O)Cc4ccccn4)CC3)CC2=O)c(C)c1 [Compound P47] | 5 (5=80-100%) | 5 (5=80-100%) | 5 (5=80-100%) | 5 (5=80-100%) | 5 (5=80-100%) | 5 (5=80-100%) | 5 (5=80-100%) | 5 (5=80-100%)
6 | CC#Cc1cc(C)c(C2C(=O)CC3(CCN(C(=O)CCOC)CC3)CC2=O)c(C)c1 [Compound A124] | 5 (5=80-100%) | 5 (5=80-100%) | 5 (5=80-100%) | 5 (5=80-100%) | 5 (5=80-100%) | 5 (5=80-100%) | 5 (5=80-100%) | 5 (5=80-100%)
7 | CC#Cc1cc(C)c(C2=C(OC(=O)OC)CC3(CCN(C(=O)NC(=O)c4ccccn4)CC3)CC2=O)c(C)c1 [Compound P46] | 2 (2=20-39%) | 5 (5=80-100%) | 5 (5=80-100%) | 5 (5=80-100%) | 5 (5=80-100%) | 5 (5=80-100%) | 5 (5=80-100%) | 5 (5=80-100%)
8 | CC#Cc1cc(C)c(C2C(=O)CC3(CCN(C(=O)c4cc(C)nc(C)n4)CC3)CC2=O)c(C)c1 [Compound A122] | 5 (5=80-100%) | 5 (5=80-100%) | 5 (5=80-100%) | 5 (5=80-100%) | 5 (5=80-100%) | 5 (5=80-100%) | 5 (5=80-100%) | 5 (5=80-100%)
9 | CC#Cc1cc(C)c(C2C(=O)CC3(CCN(C(=O)c4csnn4)CC3)CC2=O)c(C)c1 [Compound A135] | 5 (5=80-100%) | 5 (5=80-100%) | 5 (5=80-100%) | 5 (5=80-100%) | 5 (5=80-100%) | 5 (5=80-100%) | 5 (5=80-100%) | 5 (5=80-100%)
10 | CC#Cc1cc(C)c(C2C(=O)CC3(CCN(C(=O)C4CCOC4)CC3)CC2=O)c(C)c1 (centres unmarked) [Compound A129] | 5 (5=80-100%) | 5 (5=80-100%) | 5 (5=80-100%) | 5 (5=80-100%) | 5 (5=80-100%) | 5 (5=80-100%) | 5 (5=80-100%) | 5 (5=80-100%)
11 | CC#Cc1cc(C)c(C2C(=O)CC3(CCN(C(=O)c4cnn(C)n4)CC3)CC2=O)c(C)c1 [Compound A126] | 5 (5=80-100%) | 5 (5=80-100%) | 5 (5=80-100%) | 5 (5=80-100%) | 5 (5=80-100%) | 5 (5=80-100%) | 5 (5=80-100%) | 5 (5=80-100%)
12 | CC#Cc1cc(C)c(C2C(=O)CC3(CCN(C(=O)C4COCCO4)CC3)CC2=O)c(C)c1 (centres unmarked) [Compound A133] | 5 (5=80-100%) | 5 (5=80-100%) | 5 (5=80-100%) | 5 (5=80-100%) | 5 (5=80-100%) | 5 (5=80-100%) | 5 (5=80-100%) | 5 (5=80-100%)
13 | CC#Cc1cc(C)c(C2C(=O)CC3(CCN(S(=O)(=O)c4cnccn4)CC3)CC2=O)c(C)c1 [Compound A107] | 4 (4=60-79%) | 3 (3=40-59%) | 5 (5=80-100%) | 4 (4=60-79%) | 5 (5=80-100%) | 5 (5=80-100%) | 5 (5=80-100%) | 5 (5=80-100%)
14 | CC#Cc1cc(C)c(C2C(=O)CC3(CCN(C(=O)c4ccc(OC)cn4)CC3)CC2=O)c(C)c1 [Compound A121] | 4 (4=60-79%) | 5 (5=80-100%) | 5 (5=80-100%) | 5 (5=80-100%) | 5 (5=80-100%) | 5 (5=80-100%) | 5 (5=80-100%) | 5 (5=80-100%)
15 | CC#Cc1cc(C)c(C2C(=O)CC3(CCN(C(=O)c4ccc(OC)nn4)CC3)CC2=O)c(C)c1 [Compound A132] | 5 (5=80-100%) | 5 (5=80-100%) | 5 (5=80-100%) | 5 (5=80-100%) | 5 (5=80-100%) | 5 (5=80-100%) | 5 (5=80-100%) | 5 (5=80-100%)
16 | CC#Cc1cc(C)c(C2C(=O)CC3(CCN(C(=O)c4cc(OC)ccn4)CC3)CC2=O)c(C)c1 [Compound A120] | 4 (4=60-79%) | 5 (5=80-100%) | 5 (5=80-100%) | 5 (5=80-100%) | 5 (5=80-100%) | 5 (5=80-100%) | 5 (5=80-100%) | 5 (5=80-100%)
